Assay results taken from patent US20210000783A1, “USE OF EXTRACT OF VEGETATION WATERS FOR TREATING DAMAGE TO THE CARDIOVASCULAR SYSTEM” (FATTORIA LA VIALLA DI GIANNI, ANTONIO E BANDINO LO FRANCO - …, priority 2017, published 2021).

Tested on: zebrafish (Danio rerio) embryos
Test: Heart rate of zebrafish embryos with doxorubicin-induced cardiotoxicity
Assay type: in vivo
Conditions: doxorubicin alone 3 μg/ml
Experimental: (§1) The embryos were treated with the polyphenol concentrate of the present invention (sample A009), at the dilutions 1:100 and 1:500, alone or in association with Doxorubicin (3 μg/mL). A pre-treatment was performed with A009, followed by administration of Doxorubicin and A009+Doxorubicin co-treatment. NT=not-treated cells. ^∘∘∘=p<0.0001 with respect to not-treated embryos; ***=p<0.001 with respect to embryos treated with doxorubicin alone;
as §1, with “alone.” for “alone;”
To evaluate the cardioprotective effect of the polyphenol concentrate of the invention, the zebrafish was used in vivo as the animal model to study. In particular the experiments were performed on zebrafish (Danio rerio) embryos incubated for 24, 48 and 72 hours after fertilization. […]

COc1cccc2c1C(=O)c1c(O)c3c(c(O)c1C2=O)C[C@@](O)(C(=O)CO)C[C@@H]3O[C@H]1C[C@H](N)[C@H](O)[C@H](C)O1 [doxorubicin]
heart rate of zebrafish embryos (48 hours, FIG. 2): significantly reduces their heart rate
heart rate of zebrafish embryos (72 hours, FIG. 3): significantly reduces their heart rate
